Consider eleven compounds from publication PMC4549706, “Rational Design of Highly Potent and Slow-Binding Cytochrome bc1 Inhibitor as Fungicide by Computational Substitution Optimization” (Scientific Reports, 2015).

The target in the first experiment is T1, porcine succinate-cytochrome c reductase (SCR, the mixture of complex II and bc1) (Sus scrofa, UniProt P24964).
T1 construct: T h e S C R f r o m p o r c i n e h e a r t; from tissue; host or cells: porcine heart
T1 sequence (P24964 whole entry, one chain of several): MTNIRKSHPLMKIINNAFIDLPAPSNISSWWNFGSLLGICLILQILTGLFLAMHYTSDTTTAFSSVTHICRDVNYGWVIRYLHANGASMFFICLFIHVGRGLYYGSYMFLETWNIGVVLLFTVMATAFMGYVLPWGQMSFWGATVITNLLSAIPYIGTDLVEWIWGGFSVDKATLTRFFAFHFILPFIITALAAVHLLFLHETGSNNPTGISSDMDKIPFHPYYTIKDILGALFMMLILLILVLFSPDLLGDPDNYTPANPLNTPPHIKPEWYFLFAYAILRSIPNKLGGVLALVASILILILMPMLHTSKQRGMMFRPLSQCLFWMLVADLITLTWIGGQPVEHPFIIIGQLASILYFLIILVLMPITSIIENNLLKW
The experiment in a line: SCR activity, succinate-cytochrome c system (Assay 1). Format: biochemical.
Conditions: not given
How it is done: Figure 4 Slow-binding inhibition mechanism. (A,B) Effect of various concentrations of cytochrome c and compound 18 on the inhibition of SCR activity. Each reaction mixture contains 100 mM, pH 7.4), EDTA (0.3 mM), succinate (20 mM), SCR (0.1 nM), and indicated amounts of cytochrome c and compound 18. The assays were performed in the presence of (A) 18 (35 nM) and a specified amount of cytochrome c (1, 4 μM; 2, 8 μM; 3, 20 μM; and 4, 48 μM) or (B) cytochrome c (60 μM) and various concentrations of compound 18 (1, 0 nM; 2, 15 nM; 3, 20 nM; 4, 30 nM; 5, 40 nM; and 6, 50 nM). Experimental data are shown as coloured dots and theoretical values are represented as black solid lines. Insets: plots of Kobs against concentration of (A) cytochrome c and (B) compound 18. […] Each reaction mixture contains 100 mM, pH 6.5), EDTA (2 mM), lauryl maltoside (750 μM), oxidised cytochrome c (100 μM), SCR (0.05 nM), and indicated amounts of DBH2 and compound 18. Two representative sets of inhibitory assays were performed in the presence of (C) DBH2 (20 μM) and a specified amount of compound 18 (1, 20 nM; 2, 40 nM; 3, 60 nM; 4, 80 nM), or (D) DBH2 (120 μM) and a specified amount of compound 18 (1, 40 nM; 2, 80 nM; 3, 120 nM; 4, 180 nM). Insets: plots of Kobs against concentration of compound 18. (E) Plot of the apparent rate constant A against concentration of DBH2. Inset: Plot of 1/A against concentration of DBH2. (F) Plot of the apparent rate constant B against concentration of DBH2.
The porcine succinate-cytochrome c reductase (SCR, the mixture of complex II and bc1) was prepared essentially according to the previously reported method. The enzymatic activities of SCR, complex II, and bc1 complex were analyzed in respective reaction mixtures as reported previously. Kinetic analyses for the inhibition mechanism were performed as previously described. […]
inhibitory kinetics study of bc1 inhibitors 8. […]
synthesized compounds against bc1 complex were examined by SCR. As previously described 9, the combined activity of SCR can be determined by using succinate and cytochrome c as substrates (Assay 1). We also measured the activity of complex II by using succinate and 2,6-dichloroindophenol (DCIP) as substrates (Assay 2), or the activity of bc1 complex by using decylubiquinol (DBH2) and cytochrome c as substrates (Assay 3). […]
redA 10, was used to represent the enzyme concentration. The three redox reactions used in this study were summarized as follows.
Assay 1: succinate + cytochrome c3+ S C R fumarate + cytochrome c2+
Assay 2: succinate + DCIP complex II fumarate + DCIPH 2
Assay 3: DBH 2 + cytochrome c3+ bc1 complex DB + cytochrome c2+
All assays were performed at 23 °C. The enzymatic activity of SCR (Assay 1) was carried out in 1.8 mL of reaction mixture containing 100 mM PBS (pH 7.4), 0.3 mM EDTA, and indicated concentrations of succinate and oxidized cytochrome c (Sigma-Aldrich). The activity of succinate-ubiquinone reductase (complex II, Assay 2) was determined in essentially the same reaction mixture, except for the replacement of cytochrome c with DCIP (Alfa Aesar). […] DBH 2 was prepared through reduction of decylubiquinone by dithionite (Sigma-Aldrich) as previously described 11,12. The nonionic detergent LM was used to decrease the interfering non-enzymatic activity though it slightly […]
Consider `CO/N=C(/C(=O)OC)c1ccccc1CSc1nc2cc([N+](=O)[O-])ccc2s1` [Compound 55], for which the Ki (in general, the equilibrium dissociation constant of an inhibitor or competing ligand from its target) was 1.07 ± 0.12 nM.

Take `CO/N=C(/C(=O)OC)c1ccccc1CSc1nc2ccc(Br)cc2s1` [Compound 64]: the Ki is 3.44 ± 0.03 nM.

The same experiment, now with this note: Table S1, experimental binding free energy change vs compound 1.
Consider `CO/C=C(/C(=O)OC)c1ccccc1CSc1nc2c(F)cccc2s1` [Compound 2], for which the “∆∆Gexp” value turned out to be 0.09 kcal/mol.

For `CO/C=C(/C(=O)OC)c1ccccc1CSc1nc2c(Cl)cccc2s1` [Compound 3], the “∆∆Gexp” value stood at 0.47 kcal/mol.

In the case of `CO/N=C(/C(=O)OC)c1ccccc1CSc1nc2c(F)cccc2s1` [Compound 42], the “∆∆Gexp” value is reported as 0.97 kcal/mol.

Regarding `CO/N=C(/C(=O)OC)c1ccccc1CSc1nc2c(Cl)cccc2s1` [Compound 43], the “∆∆Gexp” value is on record as 0.77 kcal/mol.

Turning to `CO/N=C(/C(=O)OC)c1ccccc1CSc1nc2cc(F)ccc2s1` [Compound 52], the “∆∆Gexp” value is reported as -0.28 kcal/mol.

In the case of `CO/N=C(/C(=O)OC)c1ccccc1CSc1nc2cc([N+](=O)[O-])ccc2s1` [Compound 55], the “∆∆Gexp” value is reported as -2.00 kcal/mol.

`CO/N=C(/C(=O)OC)c1ccccc1CSc1nc2ccc(F)cc2s1` [Compound 62]: the “∆∆Gexp” value stood at 0.55 kcal/mol.

`CO/N=C(/C(=O)OC)c1ccccc1CSc1nc2ccc(Cl)cc2s1` [Compound 63]: the “∆∆Gexp” value is -0.71 kcal/mol.

Regarding `CO/N=C(/C(=O)OC)c1ccccc1CSc1nc2ccc(Br)cc2s1` [Compound 64], the “∆∆Gexp” value is -1.31 kcal/mol.

As for `CO/N=C(/C(=O)OC)c1ccccc1CSc1nc2ccc([N+](=O)[O-])cc2s1` [Compound 65], the “∆∆Gexp” value is on record as -0.08 kcal/mol.

Regarding `CO/N=C(/C(=O)OC)c1ccccc1CSc1nc2ccc(C)cc2s1` [Compound 66], the “∆∆Gexp” value was -0.57 kcal/mol.

Still in this experiment, the particulars now being: Table S1, inhibition constant with bc1 complex; read-out: Ki.
Regarding `CO/C=C(/C(=O)OC)c1ccccc1CSc1nc2c(F)cccc2s1` [Compound 2], the Ki was found to be 35.9 ± 1.24 nM.

With `CO/C=C(/C(=O)OC)c1ccccc1CSc1nc2c(Cl)cccc2s1` [Compound 3], the Ki came out at 68.5 ± 1.21 nM.

In the case of `CO/N=C(/C(=O)OC)c1ccccc1CSc1nc2c(F)cccc2s1` [Compound 42], the Ki is 160 ± 1.1 nM.

In the case of `CO/N=C(/C(=O)OC)c1ccccc1CSc1nc2c(Cl)cccc2s1` [Compound 43], the Ki was found to be 114 ± 2.25 nM.

Take `CO/N=C(/C(=O)OC)c1ccccc1CSc1nc2cc(F)ccc2s1` [Compound 52]: the Ki amounted to 19.3 ± 1.32 nM.

On to `CO/N=C(/C(=O)OC)c1ccccc1CSc1nc2ccc(F)cc2s1` [Compound 62], for which the Ki stood at 78.3 ± 1.37 nM.

As to `CO/N=C(/C(=O)OC)c1ccccc1CSc1nc2ccc(Cl)cc2s1` [Compound 63], the Ki came out at 9.37 ± 1.24 nM.

As to `CO/N=C(/C(=O)OC)c1ccccc1CSc1nc2ccc([N+](=O)[O-])cc2s1` [Compound 65], the Ki came to 27.3 ± 1.27 nM.

`CO/N=C(/C(=O)OC)c1ccccc1CSc1nc2ccc(C)cc2s1` [Compound 66]: the Ki was 11.9 ± 1.08 nM.

Still in this experiment, the particulars now being: experimental binding free energy change relative to compound 1.
Turning to `CO/N=C(/C(=O)OC)c1ccccc1CSc1nc2cc([N+](=O)[O-])ccc2s1` [Compound 55], the ΔΔGexp was -2.00 kcal/mol.

In the case of `CO/N=C(/C(=O)OC)c1ccccc1CSc1nc2ccc(Br)cc2s1` [Compound 64], the ΔΔGexp is -1.31 kcal/mol.
